Measured values: patent US20060029623A1, “Invert emulsions comprising at least one active agent sensitive to water and cosmetic/dermatological applications thereof” (GALDERMA RESEARCH & DEVELOPMENT, S.N.C., priority 2003, published 2006)

Assay: Maximum solubility of the vitamin D derivative in various excipients (excess active, stirring 12 h, filtration, HPLC assay)
Type: physicochemical
Description: In the table below are the solubility results for (4E,6E)-7-[3-(3,4-bishydroxymethylbenzyloxy)phenyl]-3-ethylnona4,6-dien-3-ol, a vitamin D analogue, in various excipients:
These maximum solubilities of (4E,6E)-7-[3-(3,4-bishydroxymethylbenzyloxy)phenyl]-3-ethylnona-4,6-dien-3-ol, a vitamin D analogue, were measured after stirring for 12 h with a magnetic stirrer bar, at room temperature, with an excess of active ingredient in the excipient to be analyzed. The suspension is then filtered (1.2 μm) and then the filtrate is assayed by HPLC.

CC/C(=C\C=C\C(O)(CC)CC)c1cccc(OCc2ccc(CO)c(CO)c2)c1 [Compound 1, (4E,6E)-7-[3-(3,4-bishydroxymethyl-benzyloxy)phenyl]-3-ethylnona-4,6-dien-3-ol]
Solubility, Concentration in % (w/w) (in Cetiol SN, room temperature): <0.1 % (w/w)
Solubility, Concentration in % (w/w) (in Crodamol IPP, room temperature): 0.2 % (w/w)
Solubility, Concentration in % (w/w) (in Ethanol Rectapur, room temperature): 23.3 % (w/w)
Solubility, Concentration in % (w/w) (in Eutanol G, room temperature): 0.5 % (w/w)
Solubility, Concentration in % (w/w) (in Glycerine, room temperature): <0.05 % (w/w)
Solubility, Concentration in % (w/w) (in Marcol 172, room temperature): <0.05 % (w/w)
Solubility, Concentration in % (w/w) (in Miglyol 812, room temperature): 0.4 % (w/w)
Solubility, Concentration in % (w/w) (in PEG 400, room temperature): 17.8 % (w/w)
Solubility, Concentration in % (w/w) (in Primol 352, room temperature): <0.05 % (w/w)
Solubility, Concentration in % (w/w) (in Propylene glycol, room temperature): 6.7 % (w/w)
Solubility, Concentration in % (w/w) (in Silicone DC 200, room temperature): <0.05 % (w/w)
Solubility, Concentration in % (w/w) (in Tegosoft TN, room temperature): 0.3 % (w/w)
Solubility, Concentration in % (w/w) (in Transcutol, room temperature): 27.0 % (w/w)
Solubility, Concentration in % (w/w) (solution pH 4, room temperature): <0.05 % (w/w)
Solubility, Concentration in % (w/w) (solution pH 7, room temperature): <0.05 % (w/w)
